Measurements taken from patent publication US9045461B2, “Phenyl-heteroaryl derivatives and methods of use thereof” (TransTech Pharma, LLC, priority 2010, dated 2015).
Counter-ions that a name gives are not always drawn.

Experiments:
sRAGE binding to S100b = target: T1, sRAGE binding to S100b (Homo sapiens, UniProt Q15109); assay: RAGE binding assay (ELISA), S100b as the RAGE ligand; conditions: compounds tested in hydrochloride salt form, concentration at which 50% signal has been inhibited
T1 construct: extracellular domain can be isolated by proteolysis of RAGE to generate soluble RAGE (sRAGE) comprised of the V and C domains
Method in brief: (§1)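 Ligand (500 ng/well) coated in carbonate buffer pH 9.8 overnight at 4° C and blocked with 1% BSA; test compound (10-100 μM in water, 4% DMSO co-solvent) incubated with sRAGE (6 nM FAC) 1 h at 37° C. Bound sRAGE detected by anti-sRAGE/biotin-anti-mouse/AP-streptavidin with pNPP, A405. IC50 = 50% signal inhibition.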

[1] = target: T2, sRAGE binding to β-amyloid (Homo sapiens, UniProt Q15109); assay: RAGE binding assay (ELISA), β-amyloid as the RAGE ligand; conditions: compounds tested in hydrochloride salt form, concentration at which 50% signal has been inhibited
T2 construct: extracellular domain can be isolated by proteolysis of RAGE to generate soluble RAGE (sRAGE) comprised of the V and C domains
Method in brief: as §1

T1 sequence (Q15109 23-342 limits assumed): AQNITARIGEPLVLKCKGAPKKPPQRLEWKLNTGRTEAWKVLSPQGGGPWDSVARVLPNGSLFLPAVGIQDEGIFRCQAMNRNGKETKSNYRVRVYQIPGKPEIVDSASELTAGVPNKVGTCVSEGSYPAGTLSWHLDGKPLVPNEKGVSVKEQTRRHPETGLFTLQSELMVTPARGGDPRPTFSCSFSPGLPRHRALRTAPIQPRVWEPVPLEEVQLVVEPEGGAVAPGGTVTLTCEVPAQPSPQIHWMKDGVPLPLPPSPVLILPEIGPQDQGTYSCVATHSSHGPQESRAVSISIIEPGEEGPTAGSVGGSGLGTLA
T2 sequence (Q15109 23-342 limits assumed): as above

| IC50 (sRAGE binding to S100b) | IC50 [1] | SMILES |
| --- | --- | --- |
| 0.5 µM | 1.16 µM | CCCCc1nnc(OC2CCN(C)CC2)cc1-c1ccc(OC2CCCCC2)c(-c2cnn(CCOC)c2)c1 [Example 78, 3-Butyl-4-{4-cyclohexyloxy-3-[1-(2-methoxy-ethyl)-1H-pyrazol-4-yl]-phenyl}-6-(1-methyl-piperidin-4-yloxy)-pyridazine dihydrochloride] |
| 2.94 µM | 2.62 µM | CCCCc1nnc(OC2CCN(C)CC2)cc1-c1ccc(OC2CCCC2)cc1 [Example 51, 3-butyl-4-(4-cyclopentyloxy-phenyl)-6-(1-methyl-piperidin-4-yloxy)-pyridazine dihydrochloride] |
| 1.25 µM | 1.25 µM | CCCCc1nnc(C(=O)NC2CCN(C)CC2)cc1-c1ccc(OCc2ccccc2)cc1 [Example 80, 5-(4-Benzyloxy-phenyl)-6-butyl-pyridazine-3-carboxylic acid (1-methyl-piperidin-4-yl)-amide dihydrochloride] |
| 2.6 µM | 8.96 µM | CCCCc1nnc(O[C@@H]2CN(C)CC[C@H]2C(F)F)cc1-c1ccc(OC2CCCCC2)cc1 (racemic) [Example 48, (±)-trans-3-butyl-4-(4-cyclohexyloxy-phenyl)-6-(4-difluoromethyl-1-methyl-piperidin-3-yloxy)-pyridazine dihydrochloride] |
| 0.48 µM | 0.32 µM | CCCCc1nnc(OC[C@H]2CN(C)CC[C@H]2OC)cc1-c1ccc(OC2CCCCC2)cc1 (racemic) [Example 44, (±)-cis-3-Butyl-4-(4-cyclohexyloxy-phenyl)-6-(4-methoxy-1-methyl-piperidin-3-ylmethoxy)-pyridazine dihydrochloride] |
| 2.93 µM | 2.58 µM | CCCCc1nnc(OCC2CN(C)CCO2)cc1-c1ccc(OC2CCCCC2)cc1 (stereo not drawn) [Example 34, 2-[6-Butyl-5-(4-cyclohexyloxy-phenyl)-pyridazin-3-yloxymethyl]-4-methyl-morpholine dihydrochloride] |
| 0.96 µM | 0.96 µM | CCCCc1nnc(OC[C@H]2CCN(C)C[C@@H]2OC)cc1-c1ccc(OC2CCCCC2)cc1 (racemic) [Example 36, (±)-trans-3-Butyl-4-(4-cyclohexyloxy-phenyl)-6-(3-methoxy-1-methyl-piperidin-4-ylmethoxy)-pyridazine dihydrochloride] |
| 2.78 µM | 1.78 µM | CCCCc1nnc(OCC[C@H]2CCCCN2C)cc1-c1ccc(OC2CCCCC2)cc1 [Example 32, 3-Butyl-4-(4-cyclohexyloxy-phenyl)-6-[2-((R)-1-methyl-piperidin-2-yl)-ethoxy]-pyridazine dihydrochloride] |
| 2.07 µM | 6.78 µM | CCCCc1nnc(OC2CCN(C)CC2)cc1-c1ccc(OC2CCCCC2)c(C2=NC(C)(C)CO2)c1 [Example 76, 3-Butyl-4-[4-cyclohexyloxy-3-(4,4-dimethyl-4,5-dihydro-oxazol-2-yl)-phenyl]-6-(1-methyl-piperidin-4-yloxy)-pyridazine] |
| 1.42 µM | 1.96 µM | CCCCc1nnc(OC2CCN(C)CC2)cc1-c1ccc(OCc2ccc(Cl)cc2)cc1 [Example 50, 3-butyl-4-[4-(4-chloro-benzyloxy)-phenyl]-6-(1-methyl-piperidin-4-yloxy)-pyridazine dihydrochloride] |
| 2.19 µM | 4.04 µM | CCCCc1nnc(O[C@H]2CCN(C)C[C@@H]2F)cc1-c1ccc(OC2CCCCC2)cc1 (racemic) [Example 41, (±)-trans-3-Butyl-4-(4-cyclohexyloxy-phenyl)-6-(3-fluoro-1-methylpiperidin-4-yloxy)-pyridazine dihydrochloride] |
| 2.21 µM | 1.8 µM | CCCCc1nnc(O[C@H]2CCN(C)C[C@H]2F)cc1-c1ccc(OC2CCCCC2)cc1 (racemic) [Example 42, (±)-cis-3-Butyl-4-(4-cyclohexyloxy-phenyl)-6-(3-fluoro-1-methylpiperidin-4-yloxy)-pyridazine dihydrochloride] |
| 1.52 µM | 1.63 µM | CCCCc1nnc(OCC2CCN(C)C2)cc1-c1ccc(OCc2ccccc2)cc1 (stereo not drawn) [Example 10, 4-(4-Benzyloxy-phenyl)-3-butyl-6-(1-methyl-pyrrolidin-3-ylmethoxy)-pyridazine dihydrochloride] |
| 1.44 µM | 1.47 µM | CCCCc1nnc(C(=O)N[C@H]2CCN(C)C[C@H]2O)cc1-c1ccc(OC2CCCCC2)cc1 (racemic) [Example 112, (±)-cis-6-Butyl-5-(4-cyclohexyloxy-phenyl)-pyridazine-3-carboxylic acid (3-hydroxy-1-methyl-piperidin-4-yl)-amide dihydrochloride] |
| 2.12 µM | 2.92 µM | CCCCc1nnc(C(=O)NC2(CO)CCN(C)C2)cc1-c1ccc(OC2CCCCC2)cc1 (stereo not drawn) [Example 111, 6-Butyl-5-(4-cyclohexyloxy-phenyl)-pyridazine-3-carboxylic acid (3-hydroxymethyl-1-methyl-pyrrolidin-3-yl)-amide dihydrochloride] |
| 1.87 µM | 1.65 µM | CCCCc1nnc(O[C@H]2CC[C@H](NC)CC2)cc1-c1ccc(OC2CCCCC2)cc1 [Example 37, {4-[6-Butyl-5-(4-cyclohexyloxy-phenyl)-pyridazin-3-yloxy]-cyclohexyl}-methyl-amine dihydrochloride] |
| 1.64 µM | 1.16 µM | CCCCc1nnc(OC2CCN(C)CC2)cc1-c1ccc(OC2CCCCC2)c(O)c1 [Example 74, 5-[3-Butyl-6-(1-methyl-piperidin-4-yloxy)-pyridazin-4-yl]-2-cyclohexyloxy-phenol dihydrochloride] |
| 2.63 µM | 1.48 µM | CCCCc1nnc(OCC[C@@H]2CCCCN2C)cc1-c1ccc(OC2CCCCC2)cc1 [Example 33, 3-butyl-4-(4-cyclohexyloxy-phenyl)-6-[2-((S)-1-methyl-piperidin-2-yl)-ethoxy]-pyridazine dihydrochloride] |
| 2.13 µM | 2.33 µM | CCCCc1nnc(OC[C@H]2CN(C)C[C@@H]2CO)cc1-c1ccc(OCc2ccccc2)cc1 (racemic) [Example 6, (±)-trans-{4-[5-(4-Benzyloxy-phenyl)-6-butyl-pyridazin-3-yloxymethyl]-1-methyl-pyrrolidin-3-yl}-methanol dihydrochloride] |
| 2.07 µM | 0.83 µM | CCCCc1nnc(OC[C@H]2CN(C)CC[C@H]2O)cc1-c1ccc(OC2CCCCC2)cc1 (racemic) [Example 43, (±)-cis-3-[6-Butyl-5-(4-cyclohexyloxy-phenyl)-pyridazin-3-yloxymethyl]-1-methyl-piperidin-4-ol dihydrochloride] |
| 1.14 µM | 1.24 µM | CCCCc1nnc(OCCCN(CC)CC)cc1-c1ccc(OCc2ccccc2)cc1 [Example 4, 3-[5-(4-Benzyloxy-phenyl)-6-butyl-pyridazin-3-yloxy]-propyl}-diethyl-mine dihydrochloride] |
| 1.69 µM | 2.51 µM | CCCCc1nnc(C(=O)NCCN2CCC(O)CC2)cc1-c1ccc(OC2CCCCC2)cc1 [Example 93, 6-Butyl-5-(4-cyclohexyloxy-phenyl)-pyridazine-3-carboxylic acid [2-(4-hydroxy-piperidin-1-yl)-ethyl]-amide dihydrochloride] |
| 3.94 µM | 6.26 µM | CCCCc1nnc(OC2CCN(C)CC2)cc1-c1ccc(OC(C)C)cc1 [Example 49, 3-Butyl-4-(4-isopropoxy-phenyl)-6-(1-methyl-piperidin-4-yloxy)-pyridazine dihydrochloride] |
| 1.13 µM | 1.59 µM | CCCCc1nnc(OC2CCN(C)CC2)cc1-c1ccc(OC2CCCCC2)c(C(=O)OC)c1 [Example 71, 5-[3-Butyl-6-(1-methyl-piperidin-4-yloxy)-pyridazin-4-yl]-2-cyclohexyloxy-benzoic acid methyl ester dihydrochloride] |
| 1.69 µM | 1.2 µM | CCCCc1nnc(OC2CCN(C)CC2)cc1-c1ccc(OC2CCCCC2)c(-c2cnoc2)c1 [Example 72, 3-Butyl-4-(4-cyclohexyloxy-3-isoxazol-4-yl-phenyl)-6-(1-methyl-piperidin-4-yloxy)-pyridazine dihydrochloride] |
| 1.75 µM | 1.02 µM | CCCCc1nnc(C(=O)NC[C@@H]2CCCN2CC)cc1-c1ccc(OC2CCCCC2)cc1 [Example 92, 6-Butyl-5-(4-cyclohexyloxy-phenyl)-pyridazine-3-carboxylic acid ((S)-1-ethyl-pyrrolidin-2-ylmethyl)-amide dihydrochloride] |
| 1.12 µM | 1.61 µM | CCCCc1nnc(C(=O)NC[C@@H]2CCN(C)C[C@@H]2OC)cc1-c1ccc(OC2CCCCC2)cc1 (racemic) [Example 104, (±)-cis-6-Butyl-5-(4-cyclohexyloxy-phenyl)-pyridazine-3-carboxylic acid (3-methoxy-1-methyl-piperidin-4-ylmethyl)-amide dihydrochloride] |
| 1.15 µM | 0.5 µM | CCCCc1nnc(OCC2(F)CCN(C)CC2)cc1-c1ccc(OC2CCCCC2)cc1 [Example 45, 3-Butyl-4-(4-cyclohexyloxy-phenyl)-6-(4-fluoro-1-methyl-piperidin-4-ylmethoxy)-pyridazine dihydrochloride] |

| SMILES | IC50 (sRAGE binding to S100b) | IC50 [1] |
| --- | --- | --- |
| CCCCc1nnc(OC2CN3CCC2CC3)cc1-c1ccc(OC2CCCCC2)cc1 (stereo not drawn) [Example 26, 3-[6-Butyl-5-(4-cyclohexyloxy-phenyl)-pyridazin-3-yloxy]-1-azabicyclo[2.2.2]octane dihydrochloride] | 2.08 µM | 1.9 µM |
| CCCCc1nnc(C(=O)N[C@@H]2CN3CCC2CC3)cc1-c1ccc(OC2CCCCC2)cc1 [Example 85, (S)-6-Butyl-5-(4-cyclohexyloxy-phenyl)-pyridazine-3-carboxylic acid (1-aza-bicyclo[2.2.2]oct-3-yl)-amide dihydrochloride] | 1.49 µM | 1.97 µM |
